# Data taken from US9457044B2, “Methods and compositions for wound healing” (CoDa Therapeutics, Inc., priority 2006, dated 2016).
# Assays:
# Cx43 protein [1] = experiment: Cx43 protein levels / immunostaining at skin wound sites; format: in vivo, mice
# Procedure: (§1) Male, 8 week old, ICR mice were used in the following experiments. All the mice were kept under specific pathogen-free conditions in an environmentally controlled clean room at University College London and all the experiments were carried out under UK Home Office regulations. Mice were anaesthetized by halothane inhalation. Four full-thickness excisional wounds of 6 mm diameter were made on the shaved back on either side of the dorsal midline with a 6 mm biopsy punch (Kai Industries). To each pair of wounds a single topical application of 50 μl of 1 μM Cx43 as ODN (SEQ. ID No. 2) (Sigma-Genosys) in 30% Pluronic F-127 gel (Sigma-Aldrich), chilled on ice, was made to one wound, and an identical application of 1 μM sense control sODNs was made to the other. […] R. and Becker, D. L. (2003). Targeting connexin 43 expression accelerates the rate of wound repair. Curr Biol 13, 1697-703). Each wound region was digitally photographed at the indicated time intervals, and the areas of the wounds were calculated. All wound areas were expressed as percentages of the initial wound areas. In some series of experiments, wounds and their surrounding area, including the scab and epithelial margins, were harvested with an 8 mm biopsy punch (Kai Industries) at the indicated time intervals after mice were killed with an overdose of chloroform. A minimum of eight mice were used for each time point examined.
# Immunostaining for connexin 43, blood vessels or a smooth muscle actin was carried out on cryostat sections of wounds. Sections were fixed in acetone at 4° C. for 5 minutes prior to blocking for 45 minutes. Incubation in primary antibody was for one hour at the following dilutions: rabbit anti-Cx43 (Sigma) 1:3,000; isoLectin B_FITC 1:2000; von Willebrand Factor (rabbit Dako) 1:400; anti-α smooth muscle actin (Sigma) 1:400 at room temperature. Sections were washed for 3×5 minutes in PBS before a one hour incubation in anti-rabbit-FITC secondary antibody (Dako) 1:200 at room temperature. Washing 3×5 minutes in PBS, in some cases with 1 μM bis-benzimide (Sigma) in the first wash as a nuclear counter stain, and mounted in Citifluor (Citifluor, London, UK). Sections were imaged by confocal microscopy with all parameters kept constant to allow direct comparison of digital images.
# fibroblast like cells = experiment: Fibroblast-like cell count at wound margin (rhodamine phalloidin/DAPI); format: in vivo, mice; settings: 2 day wounds; P<0.01
# Procedure: as §1, with “In some series of experiments, wounds and their surrounding area, including the scab and epithelial margins, were harvested with an 8 mm biopsy punch (Kai Industries) at the indicated time intervals after mice were killed with an overdose of chloroform. A minimum of eight mice were used for each time point examined.” left out
# A treatment-blinded observer counted MPO-positive neutrophils and F4/80-positive macrophages in the wound bed (defined as the area surrounded by unwounded skin, fascia, regenerated epidermis, and eschar) in 3 random high-power fields of 0.332 mm^2. […]
# Cx43 protein [2] = experiment: Cx43 protein knockdown in confluent fibroblast cultures; format: cell-based; settings: within two hours
# Procedure: Swiss 3T3 fibroblasts were grown in Dulbecco's modified Eagle's medium (DMEM; Gibco) supplemented with 10% fetal calf serum (Labtech) and 1% penicillinstreptomycin solution (Sigma, Poole) in a 5% CO2 incubator at 37° C. Unless otherwise stated, the cells were maintained in this medium for most experiments. The cells were passaged by trypsinization and used at passages 6-10 at a confluency of Z 90%. Cells were plated on 13 mm glass coverslips in 24-well dishes (Nunc) with 4−5×10^5 cells per well containing 1 ml of medium. Cells reached confluency after 72 hours and were then used for experimentation.
# In order to knock down Cx43 expression in the fibroblasts the media was replaced with serum-free DMEM containing either 20 μM asODNs or 20 μM control sODNs. This was incubated for two hours before being replaced with serum containing DMEM. The wounding assay was then carried out as above.
# granulation tissue = experiment: Granulation tissue area (H&E); format: in vivo, mice
# Procedure: as §1, with “examined. […]” for “examined.”
# hydroxyproline = experiment: Hydroxyproline analysis of collagen content of wound area; design: species or system mice; settings: mouse, in vivo
# Procedure: as §1, with “Targeting connexin 43 expression accelerates the rate of wound repair. Curr Biol 13, 1697-703).” left out, “In some series of experiments, wounds and their surrounding area, including the scab and epithelial margins, were harvested with an 8 mm biopsy punch (Kai Industries) at the indicated time intervals after mice were killed with an overdose of chloroform. A minimum of eight mice were used for each time point examined.” left out
# The collagen content of the wound area was assessed by determining the amount of hydroxyproline (HP), a major component of collagen. […] Concentrations of protein were measured using a BCA™ Protein Assay Kit (PIERCE Biotechnology Inc.), and the amounts of HP were determined with Sircol™ Soluble Collagen Assay Kit (Biocolor Ltd.). The data were expressed as amounts of HP/total protein (ng/μg) for each sample.
# IGF-7 = experiment: Growth factor/cytokine antibody array of chimera: IGF-7; format: cell-based, human; settings: after two weeks in culture
# Procedure: (§2) Cell denuded pig stroma chimeras were cultured for two weeks and then assessed using a growth factor/cytokine antibody array (measures protein levels of 120 different growth factors/cytokines.
# (§3) After two weeks in culture the chimeras were cut in half: one half for histological analysis, and the other for growth factor and cytokine array analysis. For growth factor and cytokine analysis the central stromal region (with fully recovered human cell epithelium) and partially repopulated stroma (human keratocytes) was removed and homogenised separately from the human limbal rim which contains stem cell populations. The homogenates were run on a growth factor/cytokine array (FIG. 15) and analysis of growth factor levels performed using densitometry analysis of the array membranes.
# IGFBP-2 = experiment: Growth factor/cytokine antibody array of chimera: IGFBP-2; format: cell-based, human; settings: after two weeks in culture
# Procedure: as §2, §3
sequence,measurement,setting,value
"GTAATTGCGGCAGGAGGAATTGTTTCTGTC (antisense GTAATTGCGGCAGGAGGAATTGTTTCTGTC; in Pluronic F-127 gel, further chemistry not given here) [Cx43 asODN]",Cx43 protein immunostaining in epidermis and dermis of wound edge,"Cx43 protein [1]; day 1, compared to controls",very low levels
same,Cx43 protein immunostaining of wound,Cx43 protein [1]; day 2,some Cx43 staining had returned to the dermis of the Cx43 asODN-treated wound but the level was still very low in the epidermis
same,"Cx43 staining, treated versus untreated",Cx43 protein [1]; day 7,no obvious difference
same,duration of Cx43 protein down-regulation in wound-site epidermis and dermis,Cx43 protein [1]; delivered from Pluronic F-127 slow-release gel,at least 24 hours
same,protein levels of Cx43 in the epidermis and dermis,"Cx43 protein [1]; within two hours of treatment, delivery from the time of injury",markedly reduced
same,number of elongated fibroblast like cells at the wound margin (mean per field),fibroblast like cells,99.2
same,knockdown of Cx43 protein,Cx43 protein [2],95%
same,granulation tissue area versus untreated tissue,"granulation tissue; day 5, difference not significant",slightly smaller
same,granulation tissue area versus control sODN treated wounds,"granulation tissue; days 7, 10 and 14 after wounding",significantly (*P<0.05; **P<0.01) smaller
same,hydroxyproline in treated wounds,hydroxyproline,increased
same,level of IGF-7 in chimeric stroma compared with untreated controls,IGF-7,very high levels
same,level of IGFBP-2 in limbal rim and stroma compared with untreated controls,IGFBP-2,higher levels
